In one test the test system is HL-60. In words: Cytotoxicity against human HL60 cells after 48 hrs by MTT assay. The format is functional, cell-based. The settings on record: HL-60, 48 h.
In the next test the test system is H22. The test is described as follows: Antimetastatic activity in mouse H22 cells xenografted in mouse assessed as reduction of metastasized nodes at 50 mg/kg, po administered 6 days per week for 2 weeks measured after 1 day last post dose. It counts as functional. Set-up: scale not given: the % may be the effect or the level left.
Another test addresses T1, Aminopeptidase N (Sus scrofa, UniProt P15145).
T1 sequence (P15145 whole entry): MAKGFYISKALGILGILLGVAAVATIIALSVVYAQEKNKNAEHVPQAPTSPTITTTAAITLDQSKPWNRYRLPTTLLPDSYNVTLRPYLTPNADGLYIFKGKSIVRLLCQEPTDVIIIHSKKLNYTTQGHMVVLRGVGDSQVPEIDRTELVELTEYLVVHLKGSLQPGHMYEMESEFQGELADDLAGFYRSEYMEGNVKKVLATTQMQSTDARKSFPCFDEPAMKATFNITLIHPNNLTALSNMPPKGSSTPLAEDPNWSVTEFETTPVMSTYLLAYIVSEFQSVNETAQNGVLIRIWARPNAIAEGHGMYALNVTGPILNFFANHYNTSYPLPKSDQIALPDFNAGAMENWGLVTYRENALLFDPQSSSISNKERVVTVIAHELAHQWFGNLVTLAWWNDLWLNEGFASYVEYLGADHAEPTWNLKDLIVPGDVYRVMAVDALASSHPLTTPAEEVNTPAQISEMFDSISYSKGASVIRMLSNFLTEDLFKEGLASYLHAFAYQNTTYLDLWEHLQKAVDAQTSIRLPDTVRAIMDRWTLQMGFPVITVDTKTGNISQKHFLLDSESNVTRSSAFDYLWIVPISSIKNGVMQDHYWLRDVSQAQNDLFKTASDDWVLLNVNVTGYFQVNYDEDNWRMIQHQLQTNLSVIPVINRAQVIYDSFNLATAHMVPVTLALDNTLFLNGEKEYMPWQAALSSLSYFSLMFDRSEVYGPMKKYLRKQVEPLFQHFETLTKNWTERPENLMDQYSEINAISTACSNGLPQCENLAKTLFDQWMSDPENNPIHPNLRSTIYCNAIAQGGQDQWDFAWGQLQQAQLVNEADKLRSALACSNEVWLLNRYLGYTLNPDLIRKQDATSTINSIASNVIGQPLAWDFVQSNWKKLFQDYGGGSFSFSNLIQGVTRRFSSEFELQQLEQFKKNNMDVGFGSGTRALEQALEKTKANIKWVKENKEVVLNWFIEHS
The test is described as follows: Inhibition of pig kidney microsomes aminopeptidase N preincubated for 30 mins.

This note sets out measurements from ChEMBL document CHEMBL1154789, “Novel cyclic-imide peptidomimetics as aminopeptidase N inhibitors. Design, chemistry and activity evaluation. Part I” (Eur J Med Chem, 2009).

Take `COc1cc(C(=O)N[C@H]2CCC(=O)N(CC(=O)NO)C2=O)cc(OC)c1OC`: in the test with HL-60, 136 µM corresponded to half-maximal inhibition (IC50). Also, the Activity in the test with H22 turned out to be 81.56%.

`COC(=O)[C@H](CCCCNC(=O)OCc1ccccc1)NC(=O)CN1C(=O)CC[C@H](NC(=O)c2cc(OC)c(OC)c(OC)c2)C1=O`: the IC50 on Aminopeptidase N was found to be 38.1 µM. `COC(=O)[C@H](CCCNC(=N)N[N+](=O)[O-])NC(=O)CN1C(=O)CC[C@H](NC(=O)c2cc(OC)c(OC)c(OC)c2)C1=O`: the concentration for half-maximal inhibition (IC50) was found to be 42 µM at Aminopeptidase N and 86 µM in the test with HL-60. In turn, `O=C(CN1C(=O)CC[C@H](NC(=O)c2cc(O)c(O)c(O)c2)C1=O)N[C@@H](Cc1ccccc1)C(=O)O` yielded an IC50 on Aminopeptidase N of 10.3 µM.

On to `COC(=O)[C@@H](CS)NC(=O)CN1C(=O)CC[C@H](NC(=O)c2cc(OC)c(OC)c(OC)c2)C1=O`, for which half-maximal inhibition on Aminopeptidase N (IC50) was put at 50.3 µM.

On Aminopeptidase N, `O=C(CN1C(=O)CC[C@H](NC(=O)c2cc(O)c(O)c(O)c2)C1=O)NO` came in with an IC50 of 4.3 µM. Same read-out and setting: the figure for `CC(C)C[C@H](NC(=O)CN1C(=O)CC[C@H](NC(=O)c2cc(O)c(O)c(O)c2)C1=O)C(=O)O` is 55.4 µM. For `COC(=O)[C@@H](CCl)NC(=O)CN1C(=O)CC[C@H](NC(=O)c2cc(OC)c(OC)c(OC)c2)C1=O`, the IC50 against Aminopeptidase N came to 50 µM. On Aminopeptidase N, `O=C(O)CN1C(=O)CC[C@H](NC(=O)c2cc(O)c(O)c(O)c2)C1=O` showed a half-maximal inhibitory concentration (IC50) of 47.3 µM. In turn, `O=C(O)CNC(=O)CN1C(=O)CC[C@H](NC(=O)c2cc(O)c(O)c(O)c2)C1=O` registered an IC50 on Aminopeptidase N of 63.2 µM. Still for that read-out and setting: the figure for `COC(=O)CC(NC(=O)CN1C(=O)CC[C@H](NC(=O)c2cc(OC)c(OC)c(OC)c2)C1=O)C(=O)OC` (single isomer, unassigned) is 21.7 µM. In the test on HL-60, `CC(C)C[C@H](NC(=O)[C@@H](O)[C@H](N)Cc1ccccc1)C(=O)O` [UBENIMEX] gave an IC50 of 245 µM. In addition, the Activity with H22 is given as 60.25%.
